Where two headings read alike, the source gives them in different places.

What all share (experiment): Kinase panel
What all share (format): biochemical

In one test the target is T1, CaMKIV(h) (Homo sapiens, UniProt Q16566).
T1 construct: purchased Millipore KinaseProfiler
T1 sequence (Q16566 1-473): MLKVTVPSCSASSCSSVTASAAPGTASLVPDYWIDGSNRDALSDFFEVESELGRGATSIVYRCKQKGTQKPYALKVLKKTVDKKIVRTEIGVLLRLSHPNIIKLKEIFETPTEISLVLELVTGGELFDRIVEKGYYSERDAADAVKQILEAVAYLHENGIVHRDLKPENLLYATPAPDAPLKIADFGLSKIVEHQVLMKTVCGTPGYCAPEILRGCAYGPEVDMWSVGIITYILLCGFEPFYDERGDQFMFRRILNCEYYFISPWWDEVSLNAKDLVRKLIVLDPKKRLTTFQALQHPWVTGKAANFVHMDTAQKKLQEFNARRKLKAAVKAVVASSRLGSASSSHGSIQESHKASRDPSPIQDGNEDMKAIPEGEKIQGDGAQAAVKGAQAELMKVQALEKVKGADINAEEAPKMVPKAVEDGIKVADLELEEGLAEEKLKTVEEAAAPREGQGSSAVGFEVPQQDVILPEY

Another test addresses T2, EphA8(h) (Homo sapiens, UniProt P29322).
T2 construct: purchased Millipore KinaseProfiler
T2 sequence (P29322 28-1005): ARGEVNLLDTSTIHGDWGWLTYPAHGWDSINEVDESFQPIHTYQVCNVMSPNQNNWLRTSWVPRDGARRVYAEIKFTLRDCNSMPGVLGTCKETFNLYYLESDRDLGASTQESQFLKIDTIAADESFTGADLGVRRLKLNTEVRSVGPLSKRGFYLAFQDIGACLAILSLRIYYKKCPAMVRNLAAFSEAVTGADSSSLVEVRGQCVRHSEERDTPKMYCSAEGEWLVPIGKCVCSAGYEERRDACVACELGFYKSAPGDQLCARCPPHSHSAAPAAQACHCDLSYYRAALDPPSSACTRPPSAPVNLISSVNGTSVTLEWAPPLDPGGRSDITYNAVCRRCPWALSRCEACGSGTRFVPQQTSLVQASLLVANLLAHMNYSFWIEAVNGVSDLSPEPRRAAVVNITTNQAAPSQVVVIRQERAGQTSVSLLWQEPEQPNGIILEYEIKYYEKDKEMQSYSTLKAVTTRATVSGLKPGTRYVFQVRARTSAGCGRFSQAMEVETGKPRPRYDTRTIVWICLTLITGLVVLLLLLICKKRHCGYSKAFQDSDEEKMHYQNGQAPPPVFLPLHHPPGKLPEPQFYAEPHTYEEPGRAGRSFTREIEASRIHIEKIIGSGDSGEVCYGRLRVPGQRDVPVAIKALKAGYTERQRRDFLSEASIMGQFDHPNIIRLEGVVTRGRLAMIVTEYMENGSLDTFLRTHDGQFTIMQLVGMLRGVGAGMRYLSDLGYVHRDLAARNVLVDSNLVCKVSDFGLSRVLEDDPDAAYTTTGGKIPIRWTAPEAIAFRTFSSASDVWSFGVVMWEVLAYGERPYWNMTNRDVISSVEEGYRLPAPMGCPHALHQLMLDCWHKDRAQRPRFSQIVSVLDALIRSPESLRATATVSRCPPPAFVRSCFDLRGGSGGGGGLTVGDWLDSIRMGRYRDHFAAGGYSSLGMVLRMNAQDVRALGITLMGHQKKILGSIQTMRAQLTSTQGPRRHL

A further test has as its target T3, Fgr(h) (Homo sapiens, UniProt P09769).
T3 construct: purchased Millipore KinaseProfiler

The next test concerns the target T4, PKCβI(h) (Homo sapiens, UniProt P05771).
T4 construct: purchased Millipore KinaseProfiler

A further test addresses T5, PKD2(h) (Homo sapiens, UniProt Q9BZL6).
T5 construct: purchased Millipore KinaseProfiler
T5 sequence (Q9BZL6 1-878): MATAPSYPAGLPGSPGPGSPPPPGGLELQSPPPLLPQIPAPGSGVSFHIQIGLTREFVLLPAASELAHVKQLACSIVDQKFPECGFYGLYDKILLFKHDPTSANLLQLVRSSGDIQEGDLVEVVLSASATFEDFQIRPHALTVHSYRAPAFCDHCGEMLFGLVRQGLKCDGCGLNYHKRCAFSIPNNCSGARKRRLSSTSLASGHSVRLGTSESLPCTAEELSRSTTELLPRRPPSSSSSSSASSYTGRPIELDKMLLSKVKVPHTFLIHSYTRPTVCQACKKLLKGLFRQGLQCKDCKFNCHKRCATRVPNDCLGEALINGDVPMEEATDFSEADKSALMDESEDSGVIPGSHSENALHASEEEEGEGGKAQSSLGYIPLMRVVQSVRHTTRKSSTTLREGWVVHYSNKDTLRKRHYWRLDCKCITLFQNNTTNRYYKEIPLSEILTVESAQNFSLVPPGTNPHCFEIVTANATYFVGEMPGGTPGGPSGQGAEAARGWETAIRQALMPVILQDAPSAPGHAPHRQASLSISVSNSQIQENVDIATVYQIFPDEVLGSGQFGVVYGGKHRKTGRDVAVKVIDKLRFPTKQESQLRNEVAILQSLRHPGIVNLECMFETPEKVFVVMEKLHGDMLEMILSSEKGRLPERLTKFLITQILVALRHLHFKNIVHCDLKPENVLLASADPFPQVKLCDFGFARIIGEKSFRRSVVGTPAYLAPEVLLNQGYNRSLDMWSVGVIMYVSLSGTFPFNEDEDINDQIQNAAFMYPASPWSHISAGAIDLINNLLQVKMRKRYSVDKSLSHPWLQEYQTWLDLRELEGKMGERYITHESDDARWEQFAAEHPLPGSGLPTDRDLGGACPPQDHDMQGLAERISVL

The target in another test is T6, SAPK2a(h) (Homo sapiens, UniProt Q16539).
T6 construct: purchased Millipore KinaseProfiler

Another test has as its target T7, TAK1(h) (Homo sapiens, UniProt O43318).
T7 construct: purchased Millipore KinaseProfiler
T7 sequence (O43318 1-303 limits assumed): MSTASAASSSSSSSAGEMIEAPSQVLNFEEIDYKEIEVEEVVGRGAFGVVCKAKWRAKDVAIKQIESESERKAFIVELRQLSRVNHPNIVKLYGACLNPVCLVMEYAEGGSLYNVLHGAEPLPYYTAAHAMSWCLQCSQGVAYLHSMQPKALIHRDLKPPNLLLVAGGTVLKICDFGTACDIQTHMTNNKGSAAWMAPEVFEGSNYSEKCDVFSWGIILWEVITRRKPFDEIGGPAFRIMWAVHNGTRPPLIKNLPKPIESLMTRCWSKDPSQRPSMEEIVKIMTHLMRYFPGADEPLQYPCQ

T4 sequence (P05771 whole entry): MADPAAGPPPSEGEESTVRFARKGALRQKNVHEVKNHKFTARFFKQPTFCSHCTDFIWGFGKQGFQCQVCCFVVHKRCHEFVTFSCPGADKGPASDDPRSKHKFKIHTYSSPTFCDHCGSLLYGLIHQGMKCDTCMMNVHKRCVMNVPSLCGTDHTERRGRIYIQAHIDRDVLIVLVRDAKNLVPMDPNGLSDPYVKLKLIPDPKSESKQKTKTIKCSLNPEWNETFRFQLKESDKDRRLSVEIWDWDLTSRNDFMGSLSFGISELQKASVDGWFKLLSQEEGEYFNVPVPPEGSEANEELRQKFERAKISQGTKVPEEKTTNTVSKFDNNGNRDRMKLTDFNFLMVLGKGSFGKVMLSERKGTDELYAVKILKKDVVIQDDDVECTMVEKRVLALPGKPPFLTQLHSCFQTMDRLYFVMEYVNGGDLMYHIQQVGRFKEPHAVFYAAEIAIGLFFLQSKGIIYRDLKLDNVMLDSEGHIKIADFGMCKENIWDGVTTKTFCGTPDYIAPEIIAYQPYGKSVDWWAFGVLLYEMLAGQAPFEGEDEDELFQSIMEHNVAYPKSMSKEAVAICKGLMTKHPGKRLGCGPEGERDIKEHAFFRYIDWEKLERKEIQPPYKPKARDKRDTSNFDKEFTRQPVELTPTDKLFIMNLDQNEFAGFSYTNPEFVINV
T3 sequence (P09769 whole entry): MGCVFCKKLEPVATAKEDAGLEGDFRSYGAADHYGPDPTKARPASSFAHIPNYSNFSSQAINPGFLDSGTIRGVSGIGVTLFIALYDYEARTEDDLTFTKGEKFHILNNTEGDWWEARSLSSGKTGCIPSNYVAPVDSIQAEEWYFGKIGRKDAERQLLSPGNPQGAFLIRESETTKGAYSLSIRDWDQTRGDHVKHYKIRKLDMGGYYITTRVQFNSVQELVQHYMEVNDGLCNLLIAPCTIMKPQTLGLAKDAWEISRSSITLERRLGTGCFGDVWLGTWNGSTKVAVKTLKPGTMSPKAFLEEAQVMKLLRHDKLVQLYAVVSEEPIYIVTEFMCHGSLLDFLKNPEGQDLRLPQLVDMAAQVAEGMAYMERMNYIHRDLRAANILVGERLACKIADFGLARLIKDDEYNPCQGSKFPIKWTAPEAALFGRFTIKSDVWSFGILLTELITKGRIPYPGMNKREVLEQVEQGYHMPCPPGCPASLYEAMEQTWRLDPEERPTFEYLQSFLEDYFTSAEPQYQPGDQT
T6 sequence (Q16539 whole entry): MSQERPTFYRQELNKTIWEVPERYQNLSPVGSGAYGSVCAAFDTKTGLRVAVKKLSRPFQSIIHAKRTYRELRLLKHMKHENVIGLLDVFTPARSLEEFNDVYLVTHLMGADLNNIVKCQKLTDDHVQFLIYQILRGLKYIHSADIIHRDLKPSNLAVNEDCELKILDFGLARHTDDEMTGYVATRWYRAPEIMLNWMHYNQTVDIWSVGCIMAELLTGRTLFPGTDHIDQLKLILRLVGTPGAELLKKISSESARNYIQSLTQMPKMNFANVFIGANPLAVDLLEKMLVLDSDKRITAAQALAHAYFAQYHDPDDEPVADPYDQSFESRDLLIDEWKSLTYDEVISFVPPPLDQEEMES

Broadly, the inhibition is the relative decrease from the control value, in per cent. For the molecule `Cn1ncc(Cl)c1-c1cc(C(=O)N[C@H](CN)Cc2cccc(F)c2)sc1Cl` [GSK2110183], the inhibition at 0.5 µM on CaMKIV(h) was -15%; at EphA8(h), -19%; against Fgr(h), 3%; at PKCβI(h) it was 61%; against PKD2(h), 11%; against SAPK2a(h), -13%. Moreover, the inhibition at 0.5 µM at TAK1(h) is -3%. The inhibition at 10 µM is 0% at CaMKIV(h); -7% at EphA8(h); 45% on Fgr(h); 96% at PKCβI(h); 56% at PKD2(h); -8% against SAPK2a(h). Further, the inhibition at 10 µM against TAK1(h) was 1%.
For `Cn1ncc(Cl)c1-c1cc(C(=O)N[C@H](CN)Cc2ccc(F)c(F)c2)oc1Cl` [GSK2141795], the inhibition at 0.5 µM on CaMKIV(h) (0.5 µM, read-out: % Inhibition) was -18%; at EphA8(h) (0.5 µM, read-out: % Inhibition), -4%; at Fgr(h) (0.5 µM, read-out: % Inhibition) it was 2%; on PKCβI(h) (0.5 µM, read-out: % Inhibition), 74%; at PKD2(h) (0.5 µM, read-out: % Inhibition), 17%; at SAPK2a(h) (0.5 µM, read-out: % Inhibition) it was -7%. Moreover, the inhibition at 0.5 µM on TAK1(h) (0.5 µM, read-out: % Inhibition) was -10%. For the same molecule, the inhibition at 10 µM at CaMKIV(h) (10 µM, read-out: % Inhibition) is -21%; on EphA8(h) (10 µM, read-out: % Inhibition), 25%; on Fgr(h) (10 µM, read-out: % Inhibition), 68%; at PKCβI(h) (10 µM, read-out: % Inhibition), 97%; on PKD2(h) (10 µM, read-out: % Inhibition), 66%; on SAPK2a(h) (10 µM, read-out: % Inhibition), -3%. For the same molecule, on TAK1(h) (10 µM, read-out: % Inhibition), the inhibition at 10 µM is -10%.

The record behind these values is paper PMC4076210, “Discovery of Novel AKT Inhibitors with Enhanced Anti-Tumor Effects in Combination with the MEK Inhibitor” (PLoS ONE, 2014).
